Measured values: PubChem BioAssay AID1963832 (Molecular Pharmacology Branch, DTP, NCI, 2024)
“And” between values parts separate entries of the source, which are not always exact repeats. Equal values may be shown once.

System: 885724-159-R-J1-PDC complex spheroid viability
Assay: Anticancer human tumor 885724-159-R-J1-PDC patient-derived pancreatic adenocarcinoma cell line growth inhibition [POLQ]
Details: for viability, T/C: stronger effect = lower value; for IC50: curve of compound
Procedure: Multicellular complex tumor spheroid response to Polymerase (POL) inhibitors (novobiocin, ART-558, RP6685) in combination with a variety of drugs and investigational agents in selected tumor cell lines
The POL inhibitors (novobiocin, ART-558, and RP6685) were evaluated both individually and in combination with standard of care and investigational anticancer small molecules within a complex spheroid model of solid tumors. . Complex spheroids include a stromal component modeled by human endothelial cells (HUVEC) and fibroblasts modeled by human mesenchymal stem cells (MSCs). The concentration ranges selected for each drug and investigational agent were based upon clinically achievable concentrations if the clinical Cmax of the agent was known.
Compounds. The drugs and investigational agents: novobiocin (NSC847541), ART-558 (NSC835418), RP-6685 (NSC848927), peposertib (NSC802822), ceralasertib (NSC780249), elimusertib (NSC800525), camonsertib (NSC841442), AZD-1390 (NSC803789), olaparib (NSC753686), talazoparib (NSC767125), rucaparib (NSC756644), sotorasib (NSC818433), MRTX-1133 (NSC836407), SN-38 (NSC673596), topotecan (NSC609699), epotoside (NSC141540), doxorubicin (NSC123127), gemcitabine (NSC613327), 5-fluorouracil (NSC19893), paclitaxel (NSC125973), vemurafenib (NSC761431), MSA-2 (NSC828583), SN-011 (NSC837082), adavosertib (NSC754352), prexasertib (NSC758257), carboplatin (NSC241240) and oxaliplatin (NSC266046), were obtained from the National Cancer Institute (NCI) Developmental Therapeutics Program Chemical Repository (21). The FDA-approved anticancer drug set is available from the Developmental Therapeutics Program at https://dtp.cancer.gov/organization/dscb/obtaining/. […] The stock solutions were prepared in dimethyl sulfoxide (DMSO, Sigma-Aldrich, St. Louis, MO, cat. D2650), except for the platinum compounds which were prepared in saline (Quality Biological, Gaithersburg, MD, cat. 114-055-101), at 800-fold the tested concentration and stored at -70 degrees C prior to their use. All drugs and investigational agents were tested over a range starting from a high concentration at or near the clinical Cmax and decreasing in half-log increments. If the clinical Cmax for an agent had not been determined, the highest concentration tested was 10 microM, except for SN-38, which was tested at a high concentration of 1 microM.
Cell Culture. All cells were maintained in an incubator at 37 degrees C and 5% CO2 with 95% humidity. The PDC lines were cultured according to standard operating procedures established by the NCI PDMR (https://pdmr.cancer.gov). Table 3 of the manuscript, lists the cell lines along with the number of the three cell types plated to form the mct-spheroids and media for tumor cell growth. After thawing, all PDC lines, except 997537-175-T-J1-PDC and 415267-285-R-J2-PDC, were cultured in Matrigel-coated flasks prepared with a working solution of 1X Ham's F-12 nutrient mix, without supplementation (Thermo Fisher Scientific, cat. 11765054), 100 U/mL penicillin-streptomycin (Thermo Fisher Scientific, cat. 15140122), and 2.5% Matrigel (Corning Inc., Corning, NY, cat. 354248) for the first three passages. The two PDC lines 997537-175-T-J1-PDC and 415267-285-R-J2-PDC were cultured on uncoated flasks. The 857933-349-R-J2-PDC line was cultured in 6C/Colon 1B media containing advanced DMEM/F-12 (Thermo Fisher Scientific, cat. 12634028), 10 mM HEPES (Thermo Fisher Scientific, cat. 15630080), 1X GlutaMAX supplement (Thermo Fisher Scientific, cat. 35050061), 0.1 mg/mL primocin (InvivoGen, San Diego, CA, cat. ant-pm-2), 10% defined fetal bovine serum, heat inactivated (HyClone Laboratories Inc., Logan, UT, cat. SH30070.03HI), 50% L-WRN conditioned media (ATCC, cat. CRL-3276), 1.25 mM N-Acetyl-L-cysteine (Sigma-Aldrich, cat. A9165), 10 mM nicotinamide (Sigma-Aldrich, cat. N0636), 1X B-27 supplement (Thermo Fisher Scientific, cat. 17504044), 1X N-2 supplement (Thermo Fisher Scientific, cat. […]
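Further: spheroids exposed to compounds for 7 days.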

| SMILES | viability, T/C (compound 0.0316 µM) | viability, T/C (compound 0.1 µM) | viability, T/C (compound 0.316 µM) | viability, T/C (compound 1 µM) | viability, T/C (compound 3.16 µM) | viability, T/C (compound 10 µM) | IC50 |
| --- | --- | --- | --- | --- | --- | --- | --- |
| C#Cc1c(F)ccc2cc(O)cc(-c3ncc4c(N5CC6CCC(C5)N6)nc(OCC56CCCN5CC(F)C6)nc4c3F)c12 (stereo not drawn) | 106% and 94.3% and 96.4% | 99.8% and 92.7% and 89.8% | 85.4% and 94.8% and 91.8% | 67.7% and 67.8% and 78.2% | 38.5% and 45.1% and 45.6% | 20.5% and 24.2% and 20.4% | 2020 nM and 2370 nM and 2710 nM |
| C=CC(=O)N1CCN(c2nc(=O)n(-c3c(C)ccnc3C(C)C)c3nc(-c4c(O)cccc4F)c(F)cc23)C(C)C1 (stereo not drawn) | 101% and 99.6% and 109% | 87.9% and 97.3% and 91.8% | 95.6% and 105% and 106% | 98.9% and 116% and 108% | 105% and 94.4% and 114% | 90.5% and 92.3% and 86.1% | > 10000 nM |
| CC(C)n1c(=O)n(C)c2cnc3cc(F)c(-c4ccc(OCCCN5CCCCC5)nc4)cc3c21 | 94.5% and 97.2% and 114% | 99.6% and 106% and 103% | 98.5% and 110% and 99.5% | 102% and 97.6% and 97.8% | 93.2% and 94.7% and 105% | 67% and 74.3% and 92.4% | > 10000 nM |
| CC1COCCN1c1cc(-c2ccnn2C)c2ccnc(-c3ccn[nH]3)c2n1 (stereo not drawn) | 73.3% and 80% and 94.5% | 57.2% and 56.3% and 59.7% | 49.6% and 42.2% and 46.3% | 44.4% and 39.4% and 45.7% | 43.7% and 39.8% and 43.8% | 38.9% and 38.2% and 38.7% | 283 nM and 167 nM and 246 nM |
| CC1COCCN1c1cc(C2(O)CC3CCC(C2)O3)c2cnn(-c3ccn[nH]3)c2n1 (stereo not drawn) | 74.4% and 70.9% and 67.4% | 52.9% and 50.4% (2×) | 48.7% and 37.5% and 44.3% | 41.8% and 37.1% and 40.4% | 37.3% and 33.5% and 35.4% | 28.7% and 26.5% and 27.9% | 226 nM and 106 nM and 156 nM |
| CC1COCCN1c1cc(C2(S(C)(=N)=O)CC2)nc(-c2ccnc3[nH]ccc23)n1 (stereo not drawn) | 96.4% and 90.3% and 97.2% | 100% and 94.7% and 97.1% | 93.7% and 85.1% and 88.2% | 73.4% and 67.6% and 74.4% | 55% and 54.6% and 54.8% | 45.8% and 44.7% and 42.3% | 5730 nM and 4930 nM |
| CCCS(=O)(=O)Nc1ccc(F)c(C(=O)c2c[nH]c3ncc(-c4ccc(Cl)cc4)cc23)c1F | 93.7% and 104% and 95.6% | 117% and 108% and 115% | 124% (2×) and 122% | 158% and 146% and 140% | 158% and 144% and 133% | 90.7% and 102% and 68.9% | > 10000 nM |
| CCc1cc2c(N3CCc4c(cc(Cn5ccnc5)cc4-c4cn(C)nc4C(F)(F)F)C3=O)cc(C)nc2c(OC)n1 | 78.8% and 91% and 78.9% | 81.9% and 91.9% and 92.2% | 79.6% and 85.4% and 85.2% | 81.4% and 83.5% and 75.8% | 76.3% and 76.6% and 80.9% | 72.1% and 69.1% and 62.2% | > 10000 nM |
| CCc1cc2c(N3CCc4c(cc(Cn5ccnc5)cc4-c4cn(C)nc4C(F)(F)F)C3=O)ccnc2c(OC)n1 | 93.9% and 86.6% and 89.7% | 80.4% and 79.6% and 85% | 87.7% and 80.6% and 84.8% | 72.1% and 82.8% and 82.3% | 76.9% and 72.9% and 80% | 64.6% and 72.9% and 65% | > 10000 nM |
